# In ChEMBL document CHEMBL1201862, “PubChem BioAssay data set” (2004):
#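 1) Cells in 96-well plates. 2) Compound, 48 h, 5 concentrations. 3) Linear interpolation between surrounding doses. 4) Unreached endpoint = highest concentration. GI50 = concentration required for 50% inhibition of growth.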 The source made the active and inactive calls. No stated cut-off is given here; in the data, active = GI50 up to about 1.1 µM and inactive = higher.
# Tests used:
# Experiment in all cases: DTP human tumour cell line panel, 48 h
# [1] = test system: A549
# [2] = test system: ACHN
# [3] = test system: HCT-116
# [4] = test system: HCT-15
# [5] = test system: HOP-62
# [6] = test system: HT-29
# [7] = test system: K562
# [8] = test system: MOLT-4
# [9] = test system: Malme-3M
# [10] = test system: NCI-H226
# [11] = test system: RPMI-8226
# [12] = test system: RXF 393
# [13] = test system: SF-295
# [14] = test system: SF-268
# [15] = test system: SN12C
# [16] = test system: NCI-H522
SMILES,GI50 [1],GI50 [2],GI50 [3],GI50 [4],GI50 [5],GI50 [6],GI50 [7],GI50 [8],GI50 [9],GI50 [10],GI50 [11],GI50 [12],GI50 [13],GI50 [14],GI50 [15],GI50 [16]
C[C@]12CCC(=O)C=C1CC[C@@H]1C2CC[C@]2(C)Nc3c(cnn3-c3ccccc3)CC12 (stereo not given in full),> 100 µM (inactive),> 100 µM (inactive),> 100 µM (inactive),> 100 µM,> 100 µM (inactive),> 100 µM (inactive),> 100 µM (inactive),> 100 µM (inactive),> 100 µM (inactive),> 100 µM (inactive),> 100 µM (inactive),> 100 µM (inactive),> 10 µM (inactive),,,
CN1N=CSC12C(=O)N(c1ccccc1)C(=O)N2c1ccccc1 (stereo not given),> 100 µM (inactive),> 100 µM (inactive),> 100 µM (inactive),> 100 µM,> 100 µM (inactive),> 100 µM (inactive),> 100 µM (inactive),> 100 µM (inactive),> 100 µM (inactive),,> 100 µM (inactive),> 100 µM (inactive),> 100 µM (inactive),> 100 µM (inactive),> 100 µM (inactive),
C=C1CC2(CCS(=O)(=O)c3ccccc32)OC1=O (stereo not given),17.9 µM (inactive),11.5 µM (inactive),,11.9 µM,18.3 µM (inactive),12.2 µM (inactive),4.04 µM (inactive),3.49 µM (inactive),12.4 µM (inactive),10.9 µM (inactive),2.74 µM (inactive),,21.1 µM (inactive),17.2 µM (inactive),,2.82 µM (inactive)
N#Cc1ccccc1Nc1ccccc1S,30.7 µM (inactive),51.1 µM (inactive),,,46.7 µM (inactive),57.8 µM (inactive),26 µM (inactive),5.4 µM (inactive),20.5 µM (inactive),22.4 µM (inactive),,18.9 µM (inactive),23.9 µM (inactive),31.3 µM (inactive),31 µM (inactive),
CC1=C2CCCC2C/C(=N/Nc2ccc([N+](=O)[O-])cc2[N+](=O)[O-])CC1 (stereo not given),> 100 µM (inactive),> 100 µM (inactive),> 100 µM (inactive),> 100 µM,> 100 µM (inactive),> 100 µM (inactive),> 100 µM (inactive),> 100 µM (inactive),> 100 µM (inactive),> 100 µM (inactive),> 100 µM (inactive),,> 100 µM (inactive),> 100 µM (inactive),> 100 µM (inactive),> 100 µM (inactive)
O=c1/c(=C/c2ccccc2[N+](=O)[O-])sc2nnc(-c3ccco3)n12,19.8 µM (inactive),52.5 µM (inactive),26.9 µM (inactive),28.2 µM,19.3 µM (inactive),28.1 µM (inactive),50.9 µM (inactive),31.6 µM (inactive),23 µM (inactive),23 µM (inactive),,16.8 µM (inactive),23.6 µM (inactive),20.1 µM (inactive),34.5 µM (inactive),18.2 µM (inactive)
COc1nc(C(=O)O)c(Cl)c(OC)c1Cl,> 100 µM (inactive),> 100 µM (inactive),> 100 µM (inactive),,> 100 µM (inactive),> 100 µM (inactive),> 10 µM (inactive),> 100 µM (inactive),> 100 µM (inactive),,> 100 µM (inactive),> 100 µM (inactive),> 100 µM (inactive),> 100 µM (inactive),> 100 µM (inactive),> 100 µM (inactive)
COc1ccc(/C=C/C(=O)c2sc(NC(=S)NC(=O)c3ccccc3F)nc2C)cc1OC,> 100 µM (inactive),> 100 µM (inactive),,> 100 µM,> 100 µM (inactive),,> 100 µM (inactive),65.6 µM (inactive),> 100 µM (inactive),,36.2 µM (inactive),36.5 µM (inactive),> 100 µM (inactive),> 100 µM (inactive),> 100 µM (inactive),21.5 µM (inactive)
CC(=O)NC1=C(NCCO)C(=O)c2ccccc2C1=O,> 50 µM (inactive),> 50 µM (inactive),30.1 µM (inactive),> 50 µM,> 50 µM (inactive),> 50 µM (inactive),> 50 µM (inactive),> 50 µM (inactive),12.8 µM (inactive),> 50 µM (inactive),,> 50 µM (inactive),> 50 µM (inactive),> 50 µM (inactive),> 50 µM (inactive),24.5 µM (inactive)
C=C[C@H]1C=Cc2c(OC)cccc2[C@@H]1COP1(=S)NC(C)C(c2ccccc2)O1 (stereo not given in full),83.2 µM (inactive),,52.8 µM (inactive),,> 100 µM (inactive),79.6 µM (inactive),37.1 µM (inactive),33.9 µM (inactive),,67.5 µM (inactive),27 µM (inactive),51.1 µM (inactive),> 100 µM (inactive),62.1 µM (inactive),> 100 µM (inactive),29.4 µM (inactive)
CC1SC2=NC3=C(c4ccccc4C3=O)C(c3ccc(Cl)cc3)N2C1=O (stereo not given),> 100 µM (inactive),> 100 µM (inactive),,> 100 µM,> 100 µM (inactive),> 100 µM (inactive),> 100 µM (inactive),> 100 µM (inactive),> 100 µM (inactive),> 100 µM (inactive),64 µM (inactive),,> 100 µM (inactive),> 100 µM (inactive),95.5 µM (inactive),25.1 µM (inactive)
O=C1c2cccc3cccc(c23)C(=O)N1CCCN1CCN(CCCN2C(=O)c3cccc4cccc(c34)C2=O)CC1,> 100 µM (inactive),> 100 µM (inactive),> 100 µM (inactive),> 100 µM,> 100 µM (inactive),> 100 µM (inactive),> 100 µM (inactive),> 100 µM (inactive),> 100 µM (inactive),> 100 µM (inactive),> 100 µM (inactive),> 100 µM (inactive),> 100 µM (inactive),,> 100 µM (inactive),
COc1ccc(N(C)CN(C)c2nc(N(C)C)nc(N(C)C)n2)cc1,> 100 µM (inactive),> 100 µM (inactive),> 100 µM (inactive),> 100 µM,> 100 µM (inactive),> 100 µM (inactive),> 100 µM (inactive),> 100 µM (inactive),> 100 µM (inactive),,> 100 µM (inactive),,> 100 µM (inactive),> 100 µM (inactive),> 100 µM (inactive),> 100 µM (inactive)
Cc1ccc2c(c1)NC(=O)C(N=[N+]=[N-])(c1ccccc1)C2=O (stereo not given),50.5 µM (inactive),41.1 µM (inactive),35.2 µM (inactive),21.5 µM,65.9 µM (inactive),20 µM (inactive),21 µM (inactive),24.7 µM (inactive),32.5 µM (inactive),,,,25.8 µM (inactive),45.2 µM (inactive),21.1 µM (inactive),20.8 µM (inactive)
C/C(=N/NC(=O)C[n+]1ccccc1)C(CN(CC(C)C)CC(C)C)C(=O)Nc1ccc(C)cc1C (stereo not given),> 100 µM (inactive),54.5 µM (inactive),> 100 µM (inactive),,90.8 µM (inactive),> 100 µM (inactive),> 100 µM (inactive),> 100 µM (inactive),> 100 µM (inactive),,68.1 µM (inactive),61.2 µM (inactive),,> 100 µM (inactive),51.4 µM (inactive),40.8 µM (inactive)
